The record followed here is patent publication US20260265195A1, “SARM1 MODULATORS, PREPARATIONS, AND USES THEREOF” (SIRONAX LTD, priority 2022, published 2026).

The IC50 is the concentration needed to halve the response being measured.

Where only a bound is given, the exact number is not on record here.

This assay addresses T1, SARM1 (50-724) (Homo sapiens, UniProt Q6SZW1).
T1 construct: Purified SARM1 (50-724) with a final concentration of 2 nM
T1 sequence (Q6SZW1 50-724): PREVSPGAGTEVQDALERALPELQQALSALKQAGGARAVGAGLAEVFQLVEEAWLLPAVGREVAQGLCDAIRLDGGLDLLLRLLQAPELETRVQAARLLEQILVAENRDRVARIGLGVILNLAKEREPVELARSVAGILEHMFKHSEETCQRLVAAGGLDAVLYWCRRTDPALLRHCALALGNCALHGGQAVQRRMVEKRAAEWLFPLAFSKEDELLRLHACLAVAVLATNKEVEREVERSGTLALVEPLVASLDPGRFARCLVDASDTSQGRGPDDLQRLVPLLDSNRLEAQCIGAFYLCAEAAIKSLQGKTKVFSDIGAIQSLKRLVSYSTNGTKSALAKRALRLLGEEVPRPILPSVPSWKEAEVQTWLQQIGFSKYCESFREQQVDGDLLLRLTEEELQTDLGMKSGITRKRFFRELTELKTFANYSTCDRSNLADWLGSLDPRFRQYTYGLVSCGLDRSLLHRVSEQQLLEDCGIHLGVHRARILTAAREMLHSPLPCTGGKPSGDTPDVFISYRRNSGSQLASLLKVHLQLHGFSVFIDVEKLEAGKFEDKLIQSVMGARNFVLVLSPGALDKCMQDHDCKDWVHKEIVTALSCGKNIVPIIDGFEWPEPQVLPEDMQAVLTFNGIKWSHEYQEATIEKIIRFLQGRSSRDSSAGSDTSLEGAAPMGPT
The experiment in a line: SARM1 (50-724) enzymatic assay (NMN-activated NAD+ hydrolysis, LC-MS/MS readout). It counts as biochemical. Conditions: purified SARM1 (50-724) 2 nM, 200 μM NMN activator, 100 μM NAD+ substrate, 1 h at room temperature, read-out: IC50 (SARM1 inhibitory activity). As for the experimental part: Example II. SARM1 (50-724) Enzymatic Assay
An enzymatic assay was performed in a 384-well plate using Dulbecco's phosphate-buffered saline (PBS) as the reaction buffer. Purified SARM1 (50-724) with a final concentration of 2 nM was pre-incubated with a test compound at 1% DMSO final assay concentration for 15 min at room temperature. The reaction was initiated by adding a mixture of 200 μM nicotinamide mononucleotide (NMN) as activator and 100 μM NAD^+ as substrate. After 1 h of incubation at room temperature, the reaction was terminated with 10 times volume of 70% acetonitrile, then centrifuged at 3800 rpm for 10 min. The samples were analyzed using LC-MS/MS after diluted to a proper concentration by 10 mM ammonium acetate (pH 9.75).
ND means “not determined.”
Regarding `Cc1ccc2[nH]c(C(=O)N(C)c3ccc(Cl)cc3)c(CO)c2c1` [Compound 25, N-(4-chlorophenyl)-3-(hydroxymethyl)-N,5-dimethyl-1H-indole-2-carboxamide], the IC50 is not below 1000 nM.

Turning to `Cc1ccc2[nH]c(C(=O)NC3CCCC3)c(CO)c2c1` [Compound 26, N-cyclopenty1-3-(hydroxymethyl)-5-methyl-1H-indole-2-carboxamide], the IC50 was not below 1000 nM.

Take `CC(C)c1ccc2[nH]c(C(=O)N(C)C3CCCC3)c(CO)c2c1` [Compound 27, N-cyclopenty1-3-(hydroxymethyl)-5-isopropyl-N-methyl-1H-indole-2-carboxamide]: the IC50 fell in the range of 101 to 500 nM.

`CN(C(=O)c1[nH]c2ccc(C(F)(F)F)cc2c1CO)C1CCCC1` [Compound 28, N-cyclopentyl-3-(hydroxymethyl)-N-methyl-5-(trifluoromethyl)-1H-indole-2-carboxamide]: the IC50 fell in the range of 101 to 500 nM.

Turning to `COc1ccc2c(CO)c(C(=O)N(C)C3CCCC3)[nH]c2c1` [Compound 29, N-cyclopentyl-3-(hydroxymethyl)-6-methoxy-N-methyl-1H-indole-2-carboxamide], the IC50 is not below 1000 nM.

Regarding `COc1cc2[nH]c(C(=O)N(C)C3CCCC3)c(CO)c2cc1OC` [Compound 30, N-cyclopentyl-3-(hydroxymethyl)-5,6-dimethoxy-N-methyl-1H-indole-2-carboxamide], the IC50 is not below 1000 nM.

On to `CN(C(=O)c1[nH]c2cc(Cl)cc(Cl)c2c1CO)C1CCCC1` [Compound 31, 4,6-dichloro-N-cyclopentyl-3-(hydroxymethyl)-N-methyl-1H-indole-2-carboxamide], for which the IC50 is not below 1000 nM.

For `CN(C(=O)c1[nH]c2ccc(F)cc2c1CO)C1CCCC1` [Compound 32, N-cyclopentyl-5-fluoro-3-(hydroxymethyl)-N-methyl-1H-indole-2-carboxamide], the IC50 was not below 1000 nM.

Consider `CN(C(=O)c1[nH]ncc1CO)C1CCCC1` [Compound 33, N-cyclopentyl-4-(hydroxymethyl)-N-methyl-1H-pyrazole-5-carboxamide], for which the IC50 was not below 1000 nM.

For `COc1cc(OC)c2c(CO)c(C(=O)N(C)C3CCCC3)[nH]c2c1` [Compound 34, N-cyclopentyl-3-(hydroxymethyl)-4,6-dimethoxy-N-methyl-1H-indole-2-carboxamide], the IC50 is not below 1000 nM.

For `Cc1ccc2[nH]c(C(=O)N(C)C3CCCC(C)C3C)c(CO)c2c1` (centres unmarked) [Compound 35, N-(2,3-dimethylcyclohexyl)-3-(hydroxymethyl)-N,5-dimethyl-1H-indole-2-carboxamide], the IC50 was not below 1000 nM.

`Cc1ccc2[nH]c(C(=O)N(C)C3CCCC3)c(CCO)c2c1` [Compound 36, N-cyclopentyl-3-(2-hydroxyethyl)-N,5-dimethyl-1H-indole-2-carboxamide]: the IC50 was 101 to 500 nM.

For the compound `COCCc1c(C(=O)N(C)C2CCCC2)[nH]c2ccc(C)cc12` [Compound 37, N-cyclopenty1-3-(2-methoxyethyl)-N,5-dimethyl-1H-indole-2-carboxamide], the IC50 was 101 to 500 nM.

Regarding `Cc1cnc2[nH]c(C(=O)N(C)C3CCCC3)c(CO)c2c1` [Compound 38, N-cyclopentyl-3-(hydroxymethyl)-N,5-dimethyl-1H-pyrrolo[2,3-b]pyridine-2-carboxamide], the IC50 was not below 1000 nM.

As for `Cc1cccc2c(CO)c(C(=O)N(C)C3CCCC3)[nH]c12` [Compound 39, N-cyclopentyl-3-(hydroxymethyl)-N,7-dimethyl-1H-indole-2-carboxamide], the IC50 was not below 1000 nM.

`CN(C(=O)c1[nH]c2cc(Br)ccc2c1CO)C1CCCC1` [Compound 40, 6-bromo-N-cyclopentyl-3-(hydroxymethyl)-N-methyl-1H-indole-2-carboxamidc]: the IC50 is not below 1000 nM.

In the case of `CN(C(=O)c1[nH]c2cc(Cl)ccc2c1CO)C1CCCC1` [Compound 41, 6-chloro-N-cyclopentyl-3-(hydroxymethyl)-N-methyl-1H-indole-2-carboxamide], the IC50 is not below 1000 nM.

Regarding `Cc1ccc2[nH]c(C(=O)N(C)C3C[C@@H](C)O[C@@H](C)C3)c(CO)c2c1` (stereo partly drawn) [Compound 42, N-((2R,6S)-2,6-dimethyltetrahydro-2H-pyran-4-yl)-3-(hydroxymethyl)-N,5-dimethyl-1H-indole-2-carboxamide], the IC50 was not below 1000 nM.

Regarding `Cc1cccc(N(C)C(=O)c2[nH]c3ccc(C)cc3c2CO)c1` [Compound 43, 3-(hydroxymethyl)-N,5-dimethyl-N-(m-tolyl)-1H-indole-2-carboxamidc], the IC50 was not below 1000 nM.

`Cc1ccc(N(C)C(=O)c2[nH]c3ccc(C)cc3c2CO)cc1` [Compound 44, 3-(hydroxymethyl)-N,5-dimethyl-N-(p-tolyl)-1H-indole-2-carboxamide]: the IC50 is not below 1000 nM.

As for `CN(C(=O)c1[nH]ccc1CO)C1CCCC1` [Compound 45, N-cyclopentyl-3-(hydroxymethyl)-N-mcthyl-1H-pyrrole-2-carboxamide], the IC50 was not below 1000 nM.

`Cc1ccc2[nH]c(C(=O)N(C)C3CCCC3)nc2c1` [Compound 46, N-cyclopentyl-N,5-dimethyl-1H-benzo[d]imidazole-2-carboxamide]: the IC50 fell in the range of 101 to 500 nM.

Consider `Cc1ccc2[nH]c(C(=O)N(C)C3CCCCC3)nc2c1` [Compound 47, N-cyclohexyl-N,5-dimethyl-1H-benzo[d]imidazole-2-carboxamide], for which the IC50 fell in the range of 101 to 500 nM.

On to `CN(C(=O)c1nc2cc(C(F)(F)F)ccc2[nH]1)C1CCCC1` [Compound 48, N-cyclopentyl-N-methyl-5-(trifluoromethyl)-1H-benzo[d]imidazole-2-carboxamide], for which the IC50 is not above 100 nM.

In the case of `Cc1ccc2[nH]c(C(=O)N(CCO)C3CCCC3)nc2c1` [Compound 49, N-cyclopentyl-N-(2-hydroxyethyl)-5-methyl-1H-benzo[d]imidazole-2-carboxamide], the IC50 fell in the range of 101 to 500 nM.

For `Cc1ccc2[nH]c(C(=O)N(CCO)c3cccc(Cl)c3Cl)nc2c1` [Compound 50, N-(2,3-dichlorophenyl)-N-(2-hydroxyethyl)-5-methyl-1H-benzo[d]imidazole-2-carboxamide], the IC50 is not below 1000 nM.

As to `CN(C(=O)c1nc2ccccc2[nH]1)C1CCCC1` [Compound 51, N-cyclopentyl-N-methyl-1H-benzo[d]imidazole-2-carboxamide], the IC50 was not below 1000 nM.

As to `Cc1ccc2[nH]c(C(=O)N(C)C3CCCC3)nc2n1` [Compound 52, N-cyclopentyl-N,5-dimethyl-1H-imidazo[4,5-b]pyridine-2-carboxamide], the IC50 is not below 1000 nM.

Regarding `Cc1ccc2[nH]c(C(=O)N(C)C3CC4CC4C3)nc2c1` (centres unmarked) [Compound 53, N-(bicyclo[3.1.0]hexan-1H-benzo[d]imidazole-2-carboxamide], the IC50 is not below 1000 nM.

Regarding `CN(C(=O)c1cc2ccccc2[nH]1)C1CCCC1` [Compound 54, N-cyclopentyl-N-methyl-1H-indole-2-carboxamide], the IC50 is not below 1000 nM.

For `CN(C(=O)C1Cc2ccccc2N1)C1CCCC1` (centres unmarked) [Compound 55, N-cyclopentyl-N-methylindoline-2-carboxamide], the IC50 was not below 1000 nM.

On to `CN(C(=O)c1nc2ccccc2o1)C1CCCC1` [Compound 56, N-cyclopentyl-N-methylbenzo[d]oxazole-2-carboxamide], for which the IC50 is not below 1000 nM.

In the case of `CC(C)c1c[nH]c(C(=O)N(C)C2CCCC2)n1` [Compound 57, N-cyclopentyl-4-isopropyl-N-methyl-1H-imidazole-2-carboxamide], the IC50 is not below 1000 nM.

Consider `CN(C(=O)c1nc2c([nH]1)CCCC2)C1CCCC1` [Compound 58, N-cyclopentyl-N-methyl-4,5,6,7-tetrahydro-1H-benzo[d]imidazole-2-carboxamide], for which the IC50 was not below 1000 nM.

In the case of `Cc1nc(C(=O)N(C)C2CCCC2)[nH]c1C` [Compound 59, N-cyclopentyl-N,4,5-trimethyl-1H-imidazole-2-carboxamide], the IC50 is not below 1000 nM.

Consider `CN(C(=O)c1nc2c([nH]1)C(=O)CCC2)C1CCCC1` [Compound 61, N-cyclopentyl-N-methyl-7-oxo-4,5,6,7-tetrahydro-1H-benzo[d]imidazole-2-carboxamide], for which the IC50 was not below 1000 nM.

On to `COCCN(C(=O)c1nc2cc(C)ccc2[nH]1)C1CCCC1` [Compound 62, N-cyclopentyl-N-(2-methoxyethyl)-5-methyl-1H-benzo[d]imidazole-2-carboxamide], for which the IC50 lay within 101 to 500 nM.

As to `CNCCN(C(=O)c1nc2cc(C)ccc2[nH]1)C1CCCC1` [Compound 63, N-cyclopentyl-5-methyl-N-(2-(methylamino)ethyl)-1H-benzo[d]imidazol-2-carboxamide], the half-inhibitory concentration (IC50) is not below 1000 nM.
